Laboratory results as given in EP0016746A1, “New therapeutically active spirocycloalkylamines and pharmaceutical preparations comprising such compounds” (priority 1979, dated 1980).

Legend:
[1] = test system: central dopamine (DA) receptors; test: Blockade of apomorphine induced stereotypies and hyperactivity in rats; assay type: in vivo, Male Sprague-Dawley rats; settings: for ED50 Hyper-activity / ED50 Stereo-typies: i.p. 60 min prior to apomorphine hydrochloride 1 mg/kg s.c.; for ED50 Hyper-activity: dose reducing number of animals showing hyperactivity by 50% over 60 min observation; for ED50 Stereo-typies: dose reducing strength of stereotypies by 50% over 60 min observation
Excerpt: The DA receptor blockade as measured by different in vitro anc in vivo techniques correlate roughly with the antipsychotic efficacy. The blockade of the behavioural effects induced by the DA receptor agonist apomorphine is highly correlated to the antipsychotic effect of various neuroleptics. The ability of potential neuroleptics to block the apomorphine induced behaviours may thus be a valuable predictor of the anti- psychotic efficacy in man.
Male Sprague-Dawley rats, weighing 250-300 g, were used. […] The compounds were injected intraperitoneally 60 min. prior to apomorphine hydrochloride (1 mg/kg dissolved in saline), which was injected subcutaneously into the neck. […] Directly after the injection the animals were placed in the cages, one in each cage. Scoring of the stereotypies was performed by a modified version (Fuxe et al. in Rhinencephale Neurotransmetteurs et Psychoses, by G. Masson, Paris 1977, p. 253) of the system introduced by Costall and Naylor (Eur. J. Pharmacol. 24 8 (1973).
The number of animals, displaying hyperactivity caused by apomorphine, was scored. Each group consisted of 6-8 animals. Saline controls were always run simultaneously. The EO50's for stereotypies are the doses which reduce the strength of the stereotypies by 50% over the observation period of 60 min. The Ed50's for hyperactivity are the doses which reduce the number of animals showing hyperactivity by 50% over the observation period of 60 min. EO50's were calculated from log dose-curves from 4-6 levels with 6-8 animals per dose level. The test compounds were dissolved in saline or water.

[2] = Heart effects: arterial blood pressure, heart rate and electrocardiograms after consecutive increasing intravenous doses in restrained rats; assay type: in vivo, Male Sprauge-Dawley rats; settings: for Minimum doses causing changes in: Cardiogram intervals PR / Minimum doses causing changes in: Cardiogram intervals QRS / Minimum doses causing changes in: Cardiogram intervals QT / Minimum doses causing changes in: Heart rate (Decrease) / Minimum doses causing changes in: Mean arterial blood pressure (Decrease): change of more than 15% from values before administration
Description: Male Sprauge-Dawley rats weighing 290-360 grams were used. The animals were prepared for recording the arterial blood pressure through a catheter implanted into the abdominal aorta and for injection of drugs through a catheter implanted into the abdominal vena cava. Both catheters were exteriorized at the base of the neck. At least five days were allowed for recovery after the operation.
The animals were kept immobilized in restraining cages during the experiment. The arterial blood pressure was continuously monitored on a Grass Model 7 Polygraph via a Statham P23Gc transducer. Electrocardiograms were taken from subcutaneously placed thin needle electrodes and recorded on a Mingograph 34 (Elema-Schänander AB, Sweden).
Groups of rats were given consecutive increasing intravenous doses of the test compounds from the dose scale: 0.25, 0.5, 1, 2, 4, 8, 16, 32 and 64 […]. The test compounds were injected over a period of 30 seconds at an interval of five minutes at doses of 0.25-8 […] and with an interval of 15 minutes at higher dose ranges.
The minimum doses that caused changes in mean arterial blood pressure, heart rate, PR, QRS and QT intervals of more than 15% from values before administration were arbitrarily defined as a drug effect.

[3] = i.p., rats, comparison in words

Structure (SMILES) | ED50 Hyper-activity [1] [µmol/kg] | ED50 Stereo-typies [1] [µmol/kg] | potency to block apomorphine induced hyperactivity compared with clozapine [1, 3] | potency to block the stereotypies compared with clozapine [1, 3] | Minimum doses causing arrhythmias (Second degree AV-block) [2] [µmol/kg] | Minimum doses causing changes in: Cardiogram intervals PR [2] [µmol/kg] | Minimum doses causing changes in: Cardiogram intervals QRS [2] [µmol/kg] | Minimum doses causing changes in: Cardiogram intervals QT [2] [µmol/kg] | Minimum doses causing changes in: Heart rate (Decrease) [2] [µmol/kg] | Minimum doses causing changes in: Mean arterial blood pressure (Decrease) [2] [µmol/kg] | activity against apomorphine induced behaviours (in words) ([1]; i.p., rats, summary of Table 1)
OCCN1CCN(C2C=CC3(CC2)c2ccccc2CCc2ccc(Cl)cc23)CC1 (stereo not shown) [Example 4] | 24 | 70 | as potent as clozapine | more potent than clozapine | 64 | 32 | 16 | 16 | 16 to 32 | 8 | –
CN(C)C1C=CC2(CC1)c1ccccc1CCc1ccc(Cl)cc12 (stereo not shown) [-N(CH3)2, reference compound] | 6.4 | 35 | – | – | 2 to 4 | 2 | >4 | 4 | 2 | 4 | –
CN(C)CCCN1c2ccccc2Sc2ccc(Cl)cc21 [Chlorpromazine, reference compound] | 6.2 | 6.2 | – | – | – | – | – | – | – | – | –
CNC1C=CC2(CC1)c1ccccc1CCc1ccc(Cl)cc12 (stereo not shown) [Example 3, 3-Chloro-10,11-dihydro-N-methylspiro-[5H-dibenzo[a,d]-cyclohBptene-5,1'-cyclohex-2-Bn]-4'-amine] | 15 | 65 | – | – | 16 | 16 | 8 | 16 | 16 | 8 to 16 | active
CN1CCN(C2=Nc3cc(Cl)ccc3Nc3ccccc32)CC1 [Clozapine, reference compound] | 26 | 104 | – | – | – | – | – | – | – | – | –
